Laboratory results published in article PMC3401419 (Journal of the American Chemical Society, 2012).
Where two headings read alike, the source gives them in different places. Where a SMILES comes first, the peptide text is derived from it.

Columns and labels:
[1] = target: T1, Recombinant human somatic ACE (sACE-1) (Homo sapiens, UniProt P12821); settings: pH 7.4
[2] = target: T1, Recombinant human somatic ACE (sACE-1); test: Time-dependent inactivation of sACE-1 with coreactants; settings: pH 7.4, 37 °C, same concentration as corresponding lisinopril complex
[3] = target: T1, Recombinant human somatic ACE (sACE-1); test: biochemical
[4] = target: T1, Recombinant human somatic ACE (sACE-1); test: Concentration-dependent inhibition of sACE-1; settings: inhibitor and substrate concentration varied, Dixon plots

T1 sequence (P12821 30-1261): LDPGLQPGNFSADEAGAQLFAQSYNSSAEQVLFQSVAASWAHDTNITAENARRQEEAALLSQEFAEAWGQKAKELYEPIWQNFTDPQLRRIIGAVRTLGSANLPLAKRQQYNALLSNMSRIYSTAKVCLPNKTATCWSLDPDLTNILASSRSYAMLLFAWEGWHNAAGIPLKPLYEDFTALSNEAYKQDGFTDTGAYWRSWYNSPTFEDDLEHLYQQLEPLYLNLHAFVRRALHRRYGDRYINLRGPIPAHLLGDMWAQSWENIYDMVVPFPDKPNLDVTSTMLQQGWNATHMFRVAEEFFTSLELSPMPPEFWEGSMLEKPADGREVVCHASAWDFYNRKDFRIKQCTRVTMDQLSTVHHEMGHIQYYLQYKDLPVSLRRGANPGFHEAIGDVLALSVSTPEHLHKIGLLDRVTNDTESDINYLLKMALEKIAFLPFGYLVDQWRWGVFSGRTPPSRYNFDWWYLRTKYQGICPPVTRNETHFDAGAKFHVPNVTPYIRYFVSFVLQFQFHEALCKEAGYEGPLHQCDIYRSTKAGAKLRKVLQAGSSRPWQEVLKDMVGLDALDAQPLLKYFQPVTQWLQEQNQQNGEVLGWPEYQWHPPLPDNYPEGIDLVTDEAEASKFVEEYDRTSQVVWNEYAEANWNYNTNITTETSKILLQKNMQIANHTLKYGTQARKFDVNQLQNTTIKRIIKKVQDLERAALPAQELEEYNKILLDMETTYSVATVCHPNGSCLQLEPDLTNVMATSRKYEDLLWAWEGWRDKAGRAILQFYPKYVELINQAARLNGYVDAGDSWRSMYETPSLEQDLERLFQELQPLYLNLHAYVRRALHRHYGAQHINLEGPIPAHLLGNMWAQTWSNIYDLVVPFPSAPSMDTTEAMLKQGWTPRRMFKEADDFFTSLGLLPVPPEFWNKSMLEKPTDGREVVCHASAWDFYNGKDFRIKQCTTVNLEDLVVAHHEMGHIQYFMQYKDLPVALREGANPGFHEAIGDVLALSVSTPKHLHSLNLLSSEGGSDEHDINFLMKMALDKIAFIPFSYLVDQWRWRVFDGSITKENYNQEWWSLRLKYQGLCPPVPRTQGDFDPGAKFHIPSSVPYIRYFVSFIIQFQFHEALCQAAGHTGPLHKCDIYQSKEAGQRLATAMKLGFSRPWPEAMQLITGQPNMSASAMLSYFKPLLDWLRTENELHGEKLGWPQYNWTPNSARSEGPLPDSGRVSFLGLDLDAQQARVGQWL

| Compound | IC50 [1] | IC50 [3] | other results |
| --- | --- | --- | --- |
| NCC(=O)NCC(=O)N[C@@H](Cc1cnc[nH]1)C(=O)O [GGH] (H-Gly-Gly-His-OH) | > 100 µM | – | – |
| O=C([O-])CN(CCN(CC(=O)[O-])CC(=O)[O-])CC(=O)[O-].[Cu+2] [Cu-EDTA] | 26 µM | – | k2 for inactivation of sACE-1, M-chelate without lisinopril (control) ([2]; Ascorbate): 2,000 ± 3,000 {-- ^d} M^−1min^−1; k2 for inactivation of sACE-1, M-chelate without lisinopril (control) ([2]; H2O2): < 3,000 {-- ^d} M^−1min^−1 |
| O=C(O)CN1CCN(CC(=O)O)CCN(CC(=O)O)CCN(CC(=O)O)CC1 [DOTA, 1,4,7,10-tetraazacyclododecane-1,4,7,10-tetraacetic acid] | – | 7 µM | – |
| O=C([O-])CN(CC(=O)[O-])CC(=O)O.[Cu+2] [Cu-NTA] | 36 µM | – | – |
| O=C(O)CN(CCN(CC(=O)O)CC(=O)O)CC(=O)O [EDTA, Ethylenediamine-tetraacetic acid] | – | 7.2 µM | – |
| O=C(O)CN(CC(=O)O)CC(=O)O [NTA, Nitrilotriacetic acid] | – | 32 µM | – |
| NCCCC[C@H](N[C@@H](CCc1ccccc1)C(=O)O)C(=O)N1CCC[C@H]1C(=O)O [lisinopril] | – | – | mode of inhibition of sACE-1 [4]: competitive |
